The record followed here is ChEMBL document CHEMBL6121054, “Discovery of Metabolic Reprogramming 2-Quinolones as Effective Antimicrobials for MRSA-Infected Wound Therapy” (J Med Chem, 2025).

What all share (format): functional
Assay [1] deals with Staphylococcus aureus. Description: Antibacterial activity against Staphylococcus aureus NCTC 8325-4 incubated for 16 to 24 hrs by broth microdilution method. The conditions noted are these: time 16-24 hrs. (In general: Dilution methods test growth across graded concentrations, often in twofold steps.)
Assay [2] has as its system Staphylococcus aureus. Description: Antibacterial activity against Staphylococcus aureus ATCC 25904 incubated for 16 to 24 hrs by broth microdilution method. The conditions noted are these: time 16-24 hrs.
Assay [3] has as its system Staphylococcus aureus. Description: Antibacterial activity against Staphylococcus aureus ATCC 29213 incubated for 16 to 24 hrs by broth microdilution method. The following applies: time 16-24 hrs.
Assay [4] has as its system Staphylococcus aureus. Description: Antibacterial activity against Staphylococcus aureus DU1090 incubated for 16 to 24 hrs by broth microdilution method. The conditions noted are these: time 16-24 hrs.
Assay [5] concerns Staphylococcus aureus. The assay can be described thus: Antibacterial activity against Staphylococcus aureus USA300 incubated for 16 to 24 hrs by broth microdilution method. The following applies: time 16-24 hrs.
The test system of assay [6] is Listeria monocytogenes. Description: Antibacterial activity against Listeria monocytogenes ATCC 19115 incubated for 16 to 24 hrs by broth microdilution method. The following applies: time 16-24 hrs.
Assay [7] deals with Listeria monocytogenes. The assay can be described thus: Antibacterial activity against Listeria monocytogenes EGD incubated for 16 to 24 hrs by broth microdilution method. The conditions noted are these: time 16-24 hrs.
Assay [8] has as its system Staphylococcus aureus. Description: Antibacterial activity against Staphylococcus aureus USA400 incubated for 16 to 24 hrs by broth microdilution method. The following applies: time 16-24 hrs.
Assay [9] has as its system Staphylococcus aureus. The assay can be described thus: Antibacterial activity against Staphylococcus aureus ATCC 25923 incubated for 16 to 24 hrs by broth microdilution method. The conditions noted are these: time 16-24 hrs.
The test system of the next assay is Streptococcus suis. The assay can be described thus: Antibacterial activity against Streptococcus suis ZY05719 incubated for 16 to 24 hrs by broth microdilution method. The following applies: time 16-24 hrs.
Assay [10] concerns Staphylococcus aureus. The assay can be described thus: Antibacterial activity against methicillin-resistant Staphylococcus aureus MRSA 2 incubated for 16 to 24 hrs by broth microdilution method. The conditions noted are these: time 16-24 hrs.
The test system of assay [11] is Staphylococcus aureus. The assay can be described thus: Antibacterial activity against methicillin-resistant Staphylococcus aureus MRSA 1 incubated for 16 to 24 hrs by broth microdilution method.
Assay [12] has as its system Staphylococcus aureus. Description: Induction of resistance development in Staphylococcus aureus USA300 assessed as fold increase in MIC incubated for 24 hrs measured after 14 passages by broth microdilution method.
The mark [13] stands for this setting: Staphylococcus aureus, MRSA 1, time 16-24 hrs, read-out: MIC.

A word on the MIC: it is the least concentration at which growth counts as inhibited.

Each structure is given as a SMILES string. ≈ marks a conversion by molar mass, not a printed value.

Turning to `CCn1c(=O)c(C(=O)Nc2nnc(-c3ncccc3C)s2)c(O)c2ccccc21`, the MIC against Staphylococcus aureus [1], with Staphylococcus aureus [2], against Staphylococcus aureus [3], against Staphylococcus aureus [4], with Staphylococcus aureus [5] and with Listeria monocytogenes [6] was more than 8 mg/L throughout. Further, the MIC in the assay with Listeria monocytogenes [7], against Staphylococcus aureus [8] and in the assay on Staphylococcus aureus [9] was more than 8 mg/L each time.
In the case of `CCn1c(=O)c(C(=O)Nc2nnc(-c3ccc(C(F)(F)F)cn3)s2)c(O)c2ccccc21`, the MIC with Staphylococcus aureus [1] is more than 8 mg/L; against Staphylococcus aureus [2], 3.42 mg/L (≈ 7.41 µM); in the assay with Staphylococcus aureus [3], more than 8 mg/L; in the assay on Staphylococcus aureus [4], 0.96 mg/L (≈ 2.08 µM); against Staphylococcus aureus [5], 4.67 mg/L (≈ 10.1 µM); against Listeria monocytogenes [6] it was 0.29 mg/L (≈ 0.628 µM). The MIC with Listeria monocytogenes [7] came out at 0.21 mg/L (≈ 0.455 µM); against Staphylococcus aureus [8], 6.67 mg/L (≈ 14.5 µM); against Staphylococcus aureus [9], 5.33 mg/L (≈ 11.6 µM).
For `CN[C@H](CC(C)C)C(=O)N[C@H]1C(=O)N[C@@H](CC(N)=O)C(=O)N[C@H]2C(=O)N[C@H]3C(=O)N[C@H](C(=O)N[C@H](C(=O)O)c4cc(O)cc(O)c4-c4cc3ccc4O)[C@H](O)c3ccc(c(Cl)c3)Oc3cc2cc(c3O[C@@H]2O[C@H](CO)[C@@H](O)[C@H](O)[C@H]2O[C@H]2C[C@](C)(N)[C@H](O)[C@H](C)O2)Oc2ccc(cc2Cl)[C@H]1O` [VANCOMYCIN], the MIC turned out to be 1.83 mg/L (≈ 1.26 µM) in the assay on Staphylococcus aureus [1]; 0.15 mg/L (≈ 0.104 µM) in the assay on Streptococcus suis; 3 mg/L (≈ 2.07 µM) against Staphylococcus aureus [2]; 1.71 mg/L (≈ 1.18 µM) against Staphylococcus aureus [3]; 1.33 mg/L (≈ 0.918 µM) against Staphylococcus aureus [10]; 1.67 mg/L (≈ 1.15 µM) with Staphylococcus aureus [4]. Also, the MIC against Staphylococcus aureus [5] turned out to be 2.33 mg/L (≈ 1.61 µM); in the assay with Listeria monocytogenes [6], 1.83 mg/L (≈ 1.26 µM); with Staphylococcus aureus [8], 2.5 mg/L (≈ 1.73 µM); in the assay with Staphylococcus aureus [11] (setting [13]), 2.33 mg/L (≈ 1.61 µM); with Staphylococcus aureus [11] (time 16-24 hrs) it was 1.33 mg/L (≈ 0.918 µM); against Staphylococcus aureus [9] it was 2.67 mg/L (≈ 1.84 µM). Besides, the “fold change (FC)” value in the assay on Staphylococcus aureus [12] was 16.
As to `CCn1c(=O)c(C(=O)Nc2nnc(-c3ccc(Br)cn3)s2)c(O)c2ccccc21`, the MIC with Staphylococcus aureus [1] worked out at 0.27 mg/L (≈ 0.572 µM); in the assay on Staphylococcus aureus [2], 0.19 mg/L (≈ 0.402 µM); in the assay with Staphylococcus aureus [3] it was 1.13 mg/L (≈ 2.39 µM); in the assay on Staphylococcus aureus [4], 0.05 mg/L (≈ 0.106 µM); against Staphylococcus aureus [5] it was 0.06 mg/L (≈ 0.127 µM); with Listeria monocytogenes [6], 0.05 mg/L (≈ 0.106 µM). The figures for the MIC with Listeria monocytogenes [7], against Staphylococcus aureus [8] and in the assay on Staphylococcus aureus [9] were 0.06 mg/L (≈ 0.127 µM), 0.07 mg/L (≈ 0.148 µM) and 0.2 mg/L (≈ 0.423 µM), respectively.
`CCn1c(=O)c(C(=O)Nc2nnc(-c3ncccc3F)s2)c(O)c2ccccc21`: the MIC came to 0.1 mg/L (≈ 0.243 µM) with Staphylococcus aureus [1]; 0.08 mg/L (≈ 0.194 µM) against Staphylococcus aureus [2]; 0.14 mg/L (≈ 0.34 µM) in the assay on Staphylococcus aureus [3]; 0.1 mg/L (≈ 0.243 µM) with Staphylococcus aureus [4]; 0.11 mg/L (≈ 0.267 µM) with Staphylococcus aureus [5]; 0.2 mg/L (≈ 0.486 µM) with Listeria monocytogenes [6]. Besides, the MIC against Listeria monocytogenes [7] came to 0.17 mg/L (≈ 0.413 µM); in the assay on Staphylococcus aureus [8], 0.17 mg/L (≈ 0.413 µM); in the assay with Staphylococcus aureus [9], 0.15 mg/L (≈ 0.365 µM).
`CC1(C)S[C@H]([C@H](NC(=O)Cc2ccccc2)C(=O)NCc2ccccc2)N[C@H]1C(=O)N[C@H](Cc1ccccc1)[C@H](O)CC(=O)NCc1nc2ccccc2[nH]1`: the MIC with Staphylococcus aureus [1], against Staphylococcus aureus [2], in the assay with Staphylococcus aureus [3], in the assay on Staphylococcus aureus [4], against Staphylococcus aureus [5] and with Listeria monocytogenes [6] was 0.63 mg/L (≈ 0.827 µM) in each case. The minimum inhibitory concentration (MIC) in the assay on Listeria monocytogenes [7], in the assay on Staphylococcus aureus [8] and against Staphylococcus aureus [9] was 0.63 mg/L (≈ 0.827 µM) each time.
For the compound `CCn1c(=O)c(C(=O)Nc2nnc(-c3cccc(C)n3)s2)c(O)c2ccccc21`, the MIC amounted to 0.05 mg/L (≈ 0.123 µM) with Staphylococcus aureus [1]; 0.04 mg/L (≈ 0.0982 µM) against Staphylococcus aureus [2]; 0.2 mg/L (≈ 0.491 µM) in the assay on Staphylococcus aureus [3]; 0.02 mg/L (≈ 0.0491 µM) in the assay on Staphylococcus aureus [4]; 0.17 mg/L (≈ 0.417 µM) against Staphylococcus aureus [5]; 0.02 mg/L (≈ 0.0491 µM) in the assay with Listeria monocytogenes [6]. Also, the MIC against Listeria monocytogenes [7] is 0.02 mg/L (≈ 0.0491 µM); in the assay on Staphylococcus aureus [8], 0.08 mg/L (≈ 0.196 µM); against Staphylococcus aureus [9] it was 0.04 mg/L (≈ 0.0982 µM).
Regarding `CCn1c(=O)c(C(=O)Nc2nnc(-c3ccc(F)cn3)s2)c(O)c2ccccc21`, the minimum inhibitory concentration (MIC) against Staphylococcus aureus [1] came out at 1.25 mg/L (≈ 3.04 µM); in the assay with Staphylococcus aureus [2], 0.48 mg/L (≈ 1.17 µM); with Staphylococcus aureus [3], 0.67 mg/L (≈ 1.63 µM); in the assay on Staphylococcus aureus [4], 0.5 mg/L (≈ 1.22 µM); in the assay on Staphylococcus aureus [5] it was 0.46 mg/L (≈ 1.12 µM); in the assay on Listeria monocytogenes [6], 0.5 mg/L (≈ 1.22 µM). Besides, the MIC in the assay on Listeria monocytogenes [7] amounted to 0.49 mg/L (≈ 1.19 µM); against Staphylococcus aureus [8], 1.29 mg/L (≈ 3.14 µM); with Staphylococcus aureus [9], 0.46 mg/L (≈ 1.12 µM).
For `CCn1c(=O)c(C(=O)Nc2nnc(-c3cc(C)ccn3)s2)c(O)c2ccccc21`, the MIC with Staphylococcus aureus [1] was determined as 0.1 mg/L (≈ 0.245 µM); against Staphylococcus aureus [2] it was 0.19 mg/L (≈ 0.466 µM); in the assay with Staphylococcus aureus [3], 0.18 mg/L (≈ 0.442 µM); against Staphylococcus aureus [4], 0.12 mg/L (≈ 0.295 µM); against Staphylococcus aureus [5], 0.14 mg/L (≈ 0.344 µM); in the assay with Listeria monocytogenes [6] it was 0.49 mg/L (≈ 1.2 µM). Besides, the figures for the MIC in the assay on Listeria monocytogenes [7], against Staphylococcus aureus [8] and with Staphylococcus aureus [9] were 0.16 mg/L (≈ 0.393 µM), 0.14 mg/L (≈ 0.344 µM) and 0.15 mg/L (≈ 0.368 µM), respectively.
With `CNC(C)[C@@H]1CC[C@@H](N)[C@@H](O[C@H]2[C@H](O)[C@@H](O[C@H]3OC[C@](C)(O)[C@H](NC)[C@H]3O)[C@H](N)C[C@@H]2N)O1.CN[C@@H]1[C@@H](O)[C@@H](O[C@@H]2[C@@H](O)[C@H](O[C@H]3O[C@H](C(C)N)CC[C@H]3N)[C@@H](N)C[C@H]2N)OC[C@]1(C)O.CN[C@@H]1[C@@H](O)[C@@H](O[C@@H]2[C@@H](O)[C@H](O[C@H]3O[C@H](CN)CC[C@H]3N)[C@@H](N)C[C@H]2N)OC[C@]1(C)O` (some centres not stated), the MIC in the assay with Staphylococcus aureus [1] was 5.33 mg/L; with Streptococcus suis, 6 mg/L; in the assay with Staphylococcus aureus [2], more than 4 mg/L; against Staphylococcus aureus [3] it was 3 mg/L; in the assay with Staphylococcus aureus [10], more than 4 mg/L; in the assay with Staphylococcus aureus [4], 1.54 mg/L. The MIC is 4 mg/L against Staphylococcus aureus [5]; 6 mg/L against Listeria monocytogenes [6]; 3.67 mg/L against Staphylococcus aureus [8]; more than 4 mg/L with Staphylococcus aureus [11] (setting [13]); 5.33 mg/L in the assay with Staphylococcus aureus [11] (time 16-24 hrs); 2.67 mg/L with Staphylococcus aureus [9].
`CN(C)c1cc(NC(=O)CNC(C)(C)C)c(O)c2c1C[C@H]1C[C@H]3[C@H](N(C)C)C(O)=C(C(N)=O)C(=O)[C@@]3(O)C(O)=C1C2=O` [TIGECYCLINE]: the MIC in the assay on Staphylococcus aureus [1] was determined as 0.27 mg/L (≈ 0.461 µM); with Streptococcus suis, 0.07 mg/L (≈ 0.12 µM); in the assay on Staphylococcus aureus [2], 0.83 mg/L (≈ 1.42 µM); with Staphylococcus aureus [3], 0.1 mg/L (≈ 0.171 µM); against Staphylococcus aureus [10], 0.54 mg/L (≈ 0.922 µM); with Staphylococcus aureus [4], 0.23 mg/L (≈ 0.393 µM). For the same compound, the minimal inhibitory concentration (MIC) worked out at 0.16 mg/L (≈ 0.273 µM) in the assay with Staphylococcus aureus [5], 0.2 mg/L (≈ 0.341 µM) against Listeria monocytogenes [6], 0.19 mg/L (≈ 0.324 µM) in the assay with Staphylococcus aureus [8] and 0.92 mg/L (≈ 1.57 µM) in the assay on Staphylococcus aureus [9].
